PubChem BioAssay AID258 (DTP/NCI, 2004)
Inconclusive results and toxic doses are left out. Rule for the calls: active = survival T/C of 150% or more; inactive = T/C below 125% in these data.

Tested on: CD2F1 mice, L1210 leukemia sc, survival T/C
Assay: NCI In Vivo Anticancer Drug Screen. Data for tumor model L1210 Leukemia (subcutaneous) in CD2F1 (CDF1) mice
Settings: endpoint: median survival time, higher = longer survival
In short: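 Read-out: survival or tumor size. Value = treated (T) / vehicle control (C). Transplantable tumor in mice.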

Measured: T/C

CS(=O)(=O)CS(=O)(=O)OCCCl
inactive: dose: 1.5 mg/kg/injection, schedule: Q03HX024 (ip), vehicle: other 106 % of control | dose: 3.1 mg/kg/injection, schedule: Q03HX008 (ip), vehicle: other 109 % of control | dose: 3.1 mg/kg/injection, schedule: Q03HX024 (ip), vehicle: other 113 % of control | dose: 6.2 mg/kg/injection, schedule: Q01DX005 (iv), vehicle: other 104 % of control | dose: 6.2 mg/kg/injection, schedule: Q03HX008 (ip), vehicle: other 115 % of control | dose: 12.5 mg/kg/injection, schedule: Q01DX001 (iv), vehicle: other 106 % of control | dose: 12.5 mg/kg/injection, schedule: Q01DX005 (iv), vehicle: other 114 % of control | dose: 12.5 mg/kg/injection, schedule: Q01DX009 (ip), vehicle: other 122 % of control | dose: 12.5 mg/kg/injection, schedule: Q01DX009 (ip), vehicle: saline with Tween-80 123 % of control | dose: 12.5 mg/kg/injection, schedule: Q04DX003 (ip), vehicle: other 112 % of control | dose: 25.0 mg/kg/injection, schedule: Q01DX001 (ip), vehicle: other 111 % of control | dose: 25.0 mg/kg/injection, schedule: Q01DX001 (iv), vehicle: other 119 % of control | dose: 25.0 mg/kg/injection, schedule: Q04DX003 (ip), vehicle: other 124 % of control | dose: 50.0 mg/kg/injection, schedule: Q01DX001 (oral), vehicle: other 107 % of control | dose: 50.0 mg/kg/injection, schedule: Q03HX008 (ip), vehicle: other 103 % of control | dose: 142.9 mg/kg/injection, schedule: Q01DX005 (ip), vehicle: dextrose 101 % of control
active: dose: 6.2 mg/kg/injection, schedule: Q03HX024 (ip), vehicle: other 154 % of control | dose: 11.8 mg/kg/injection, schedule: Q03HX008 (ip), vehicle: dextrose 187 % of control | dose: 12.5 mg/kg/injection, schedule: Q03HX008 (ip), vehicle: other 155 % of control | dose: 12.5 mg/kg/injection, schedule: Q03HX024 (ip), vehicle: other 240 % of control | dose: 16.8 mg/kg/injection, schedule: Q03HX008 (ip), vehicle: dextrose 217 % of control | dose: 24.0 mg/kg/injection, schedule: Q01DX009 (ip), vehicle: dextrose 168 % of control | dose: 24.0 mg/kg/injection, schedule: Q03HX008 (ip), vehicle: dextrose 600 % of control | dose: 25.0 mg/kg/injection, schedule: Q01DX009 (ip), vehicle: other 176 % of control | dose: 25.0 mg/kg/injection, schedule: Q01DX009 (ip), vehicle: saline with Tween-80 154 % of control | dose: 25.0 mg/kg/injection, schedule: Q03HX008 (ip), vehicle: other 618 % of control | dose: 25.0 mg/kg/injection, schedule: Q03HX024 (ip), vehicle: other 618 % of control | dose: 34.3 mg/kg/injection, schedule: Q01DX005 (ip), vehicle: dextrose 183 % of control | dose: 34.3 mg/kg/injection, schedule: Q01DX009 (ip), vehicle: dextrose 204 % of control | dose: 34.3 mg/kg/injection, schedule: Q03HX008 (ip), vehicle: dextrose 600 % of control | dose: 49.0 mg/kg/injection, schedule: Q01DX001 (ip), vehicle: dextrose 153 % of control | dose: 49.0 mg/kg/injection, schedule: Q01DX002 (ip), vehicle: dextrose 180 % of control | dose: 49.0 mg/kg/injection, schedule: Q01DX005 (ip), vehicle: dextrose 238 % of control | dose: 49.0 mg/kg/injection, schedule: Q01DX009 (ip), vehicle: dextrose 270 % of control | dose: 49.0 mg/kg/injection, schedule: Q03HX008 (ip), vehicle: dextrose 600 % of control | dose: 50.0 mg/kg/injection, schedule: Q01DX005 (ip), vehicle: other 207 % of control | dose: 50.0 mg/kg/injection, schedule: Q01DX005 (iv), vehicle: other 226 % of control | dose: 50.0 mg/kg/injection, schedule: Q01DX009 (ip), vehicle: other 317 % of control | dose: 50.0 mg/kg/injection, schedule: Q01DX009 (ip), vehicle: saline with Tween-80 242 % of control | dose: 50.0 mg/kg/injection, schedule: Q01DX009 (oral), vehicle: other 168 % of control | dose: 50.0 mg/kg/injection, schedule: Q04DX003 (ip), vehicle: other 209 % of control | dose: 70.0 mg/kg/injection, schedule: Q01DX001 (ip), vehicle: dextrose 180 % of control | dose: 70.0 mg/kg/injection, schedule: Q01DX002 (ip), vehicle: dextrose 290 % of control | dose: 70.0 mg/kg/injection, schedule: Q01DX005 (ip), vehicle: dextrose 600 % of control | dose: 70.0 mg/kg/injection, schedule: Q01DX009 (ip), vehicle: dextrose 600 % of control | dose: 100.0 mg/kg/injection, schedule: Q01DX001 (ip), vehicle: dextrose 240 % of control | dose: 100.0 mg/kg/injection, schedule: Q01DX001 (ip), vehicle: other 618 % of control | dose: 100.0 mg/kg/injection, schedule: Q01DX001 (iv), vehicle: other 618 % of control | dose: 100.0 mg/kg/injection, schedule: Q01DX002 (ip), vehicle: dextrose 600 % of control | dose: 100.0 mg/kg/injection, schedule: Q01DX005 (ip), vehicle: dextrose 600 % of control | dose: 100.0 mg/kg/injection, schedule: Q01DX005 (ip), vehicle: other 618 % of control | dose: 100.0 mg/kg/injection, schedule: Q01DX005 (iv), vehicle: other 618 % of control | dose: 100.0 mg/kg/injection, schedule: Q01DX009 (ip), vehicle: dextrose 600 % of control | dose: 100.0 mg/kg/injection, schedule: Q01DX009 (ip), vehicle: other 216 % of control | dose: 100.0 mg/kg/injection, schedule: Q01DX009 (oral), vehicle: other 240 % of control | dose: 100.0 mg/kg/injection, schedule: Q04DX003 (ip), vehicle: other 353 % of control | dose: 142.9 mg/kg/injection, schedule: Q01DX001 (ip), vehicle: dextrose 600 % of control | dose: 142.9 mg/kg/injection, schedule: Q01DX002 (ip), vehicle: dextrose 600 % of control | dose: 200.0 mg/kg/injection, schedule: Q01DX001 (oral), vehicle: other 618 % of control | dose: 200.0 mg/kg/injection, schedule: Q01DX009 (oral), vehicle: other 384 % of control

COC12C(COC(N)=O)C3=C(C(=O)C(C)=C(N)C3=O)N1CC1C2N1C (stereo unspecified)
inactive: dose: 2.0 mg/kg/injection, schedule: Q01DX009 (ip), vehicle: saline 101 % of control | dose: 3.75 mg/kg/injection, schedule: Q01DX009 (ip), vehicle: saline 105 % of control | dose: 4.0 mg/kg/injection, schedule: Q01DX009 (ip), vehicle: saline 120 % of control | dose: 7.5 mg/kg/injection, schedule: Q01DX009 (ip), vehicle: saline 110 % of control | dose: 15.0 mg/kg/injection, schedule: Q01DX009 (ip), vehicle: saline 117 % of control | dose: 16.0 mg/kg/injection, schedule: Q01DX009 (ip), vehicle: saline 101 % of control
